For 17 molecules, Ki, logD and efflux ratio results are on record in ChEMBL document CHEMBL4385643, “Design of a brain-penetrant CDK4/6 inhibitor for glioblastoma” (Bioorg Med Chem Lett, 2019).

Series [1] has as its target CDK1/Cyclin A (Homo sapiens, UniProt P06493).
Description: Inhibition of human recombinant full length GST-tagged CDK1/Cyclin A2 expressed in sf9 insect cells assessed as inhibition constant using Ulight-4E-BP1 as substrate preincubated for 30 mins followed by substrate addition and incubated for 90 mins by TR-FRET assay
In series [2] the target is CDK4/Cyclin D3 (Homo sapiens, UniProt P11802).
Description: Inhibition of human full length GST-tagged CDK4 (1 to 303(end) amino acids)/Cyclin D3 (1 to 292(end) amino acids) expressed in baculovirus expression system assessed as inhibition constant using Ulight-4E-BP1 as substrate preincubated for 30 mins followed by substrate addition and incubated for 90 mins by TR-FRET assay
Series [3] concerns the target CDK6/cyclin D3 (Homo sapiens, UniProt Q00534).
Description: Inhibition of human full length GST-tagged CDK6 (1 to 326(end) amino acids)/Cyclin D3 (1 to 292(end) amino acids) expressed in baculovirus expression system assessed as inhibition constant using Ulight-4E-BP1 as substrate preincubated for 30 mins followed by substrate addition and incubated for 90 mins by TR-FRET assay
In series [4] the target is Cyclin-dependent kinase 2/cyclin E1 (Homo sapiens, UniProt P24941). The series can be described thus: Inhibition of human full length GST-tagged CDK2 (1 to 298(end) amino acids)/Cyclin E1 (1 to 410(end) amino acids) expressed in baculovirus expression system assessed as inhibition constant using Ulight-4E-BP1 as substrate preincubated for 30 mins followed by substrate addition and incubated for 90 mins by TR-FRET assay. (In TR-FRET formats the signal depends on donor and acceptor labels being close together.)

A short description of series [5]: Lipophilicity, log D of the compound by microscale shake flask method. It counts as physicochemical. The settings on record: octanol/water.
The test system of series [6] is human MDR1. The series is described as follows: in vitro. The settings on record: dog, MDCK-MDR1.
Description: Efflux ratio in gMDCKI cells expressing human MDR1
For series [7], the system named is mouse Bcrp1. The series is described as follows: in vitro. The settings on record: dog.
Description: Efflux ratio in MDCK2 expressing mouse bcrp1

Some results are limits rather than exact numbers.

Chain of CDK4/Cyclin D3 (P11802 whole entry): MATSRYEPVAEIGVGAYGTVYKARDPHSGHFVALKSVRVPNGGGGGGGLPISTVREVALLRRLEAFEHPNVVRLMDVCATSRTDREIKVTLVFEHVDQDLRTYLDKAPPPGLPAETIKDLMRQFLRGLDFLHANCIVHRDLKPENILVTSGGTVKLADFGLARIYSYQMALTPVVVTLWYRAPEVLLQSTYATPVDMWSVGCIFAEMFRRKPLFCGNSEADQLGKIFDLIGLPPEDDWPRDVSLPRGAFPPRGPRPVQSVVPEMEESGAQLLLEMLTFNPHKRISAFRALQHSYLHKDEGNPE
Chain of CDK4/Cyclin D3 (P30281 whole entry, further chain): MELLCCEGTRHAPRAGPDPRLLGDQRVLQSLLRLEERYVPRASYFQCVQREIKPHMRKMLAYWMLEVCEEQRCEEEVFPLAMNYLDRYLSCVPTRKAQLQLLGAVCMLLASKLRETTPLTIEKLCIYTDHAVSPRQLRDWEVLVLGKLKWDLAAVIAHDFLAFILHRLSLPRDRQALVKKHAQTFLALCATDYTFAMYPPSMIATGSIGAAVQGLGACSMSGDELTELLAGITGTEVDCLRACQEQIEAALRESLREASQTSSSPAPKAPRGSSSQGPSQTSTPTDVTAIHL
Chain of CDK6/cyclin D3 (P30281 whole entry): as the sequence (P30281 whole entry, further chain) above
Chain of CDK6/cyclin D3 (Q00534 whole entry): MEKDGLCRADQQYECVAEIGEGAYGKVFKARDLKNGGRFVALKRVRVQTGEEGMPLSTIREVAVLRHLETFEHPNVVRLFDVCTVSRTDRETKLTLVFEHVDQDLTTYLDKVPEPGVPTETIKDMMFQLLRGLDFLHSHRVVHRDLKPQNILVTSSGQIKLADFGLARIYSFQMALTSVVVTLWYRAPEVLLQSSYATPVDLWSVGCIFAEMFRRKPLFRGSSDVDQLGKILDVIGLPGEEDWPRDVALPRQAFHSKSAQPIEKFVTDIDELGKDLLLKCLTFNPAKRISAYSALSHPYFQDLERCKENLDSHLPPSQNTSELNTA
Chain of CDK1/Cyclin A (P06493 whole entry): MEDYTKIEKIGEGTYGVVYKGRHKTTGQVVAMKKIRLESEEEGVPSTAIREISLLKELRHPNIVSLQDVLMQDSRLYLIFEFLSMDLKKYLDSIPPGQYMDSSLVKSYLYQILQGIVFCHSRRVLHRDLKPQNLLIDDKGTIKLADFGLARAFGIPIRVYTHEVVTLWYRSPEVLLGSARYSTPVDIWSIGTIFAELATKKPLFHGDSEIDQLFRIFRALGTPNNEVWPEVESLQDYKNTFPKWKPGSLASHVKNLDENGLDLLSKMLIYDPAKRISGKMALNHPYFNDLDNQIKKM
Chain of CDK1/Cyclin A (P20248 whole entry, further chain): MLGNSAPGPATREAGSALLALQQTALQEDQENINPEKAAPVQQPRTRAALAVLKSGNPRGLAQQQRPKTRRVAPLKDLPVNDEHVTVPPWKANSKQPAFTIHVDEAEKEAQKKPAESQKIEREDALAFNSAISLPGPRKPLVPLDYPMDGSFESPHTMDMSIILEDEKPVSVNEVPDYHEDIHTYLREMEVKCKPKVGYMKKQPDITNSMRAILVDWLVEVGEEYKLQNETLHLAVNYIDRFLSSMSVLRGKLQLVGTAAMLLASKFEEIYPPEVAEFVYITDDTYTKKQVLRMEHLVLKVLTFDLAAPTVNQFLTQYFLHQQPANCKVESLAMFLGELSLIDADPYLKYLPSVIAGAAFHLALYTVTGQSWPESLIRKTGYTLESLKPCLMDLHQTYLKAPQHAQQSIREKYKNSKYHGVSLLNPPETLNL

For `C[C@@H]1CCCCn2ncc(-c3nc(Nc4ccc(N5CCC(N(C)C)CC5)cn4)ncc3F)c21`, the Ki – broadly, a measure of affinity in units of concentration, obtained from inhibition or displacement – turned out to be 210 nM in series [1], 1 nM in series [2] and 10 nM in series [3].
On to `CN1CCN(c2ccc(Nc3ncc(F)c(-c4cnn5c4CCCCC5)n3)nc2)CC1`, for which the Ki in series [1] worked out at 1300 nM; in series [2] it was 1.8 nM; in series [3], 24 nM.
Consider `CCN1CCN(Cc2ccc(Nc3ncc(F)c(-c4cnn5c4[C@H](C)CCCC5)n3)nc2)CC1`, for which the Ki in series [1] came to 630 nM; in series [2], 1.3 nM; in series [3], 37 nM.
As to `C[C@H]1CCCn2ncc(-c3nc(Nc4ccc(N5CCN(C)CC5)cn4)ncc3F)c21`, the results for the inhibition constant (Ki) in series [1], in series [2] and in series [3] were 980 nM, 3.8 nM and 38 nM, respectively.
On to `COCCN1CCC(Nc2nccc(-c3cn[nH]c3C(C)C)n2)CC1`, for which the Ki worked out at 270 nM in series [1], 20 nM in series [2], 0.32 µM in series [4] and 720 nM in series [3].
With `COCCN1CCC(Nc2nccc(-c3cnn4c3CCCC4)n2)CC1`, the Ki in series [1] amounted to 5200 nM; in series [2], 210 nM; in series [4], 7.5 µM; in series [3] it was 7400 nM.
As to `C[C@@H]1CCCCn2ncc(-c3nc(Nc4ccc(N5CC6(CN(CCF)C6)C5)cn4)ncc3F)c21`, the Ki in series [1] is 52 nM; in series [2] it was under 0.3 nM; in series [3], 1.6 nM. In series [5], the logD (as a rule, the decadic logarithm of the distribution of all forms, ionised or not, between an organic phase and buffer at a given pH) came to 2.8. The values for the efflux ratio in series [6] and in series [7] were 2 and 0.9, respectively.
Turning to `C[C@@H]1CCCn2ncc(-c3nc(Nc4ccc(N5CCN(C)CC5)cn4)ncc3F)c21`, the Ki in series [1] was found to be 770 nM; in series [2] it was 1.4 nM; in series [3] it was 19 nM.
Take `C[C@@H]1CCCCn2ncc(-c3nc(Nc4ccc(N5CCOCC5)cn4)ncc3F)c21`: the Ki in series [1] was determined as 70 nM; in series [2], 0.4 nM; in series [3], 7.9 nM.
With `C[C@@H]1CCCCn2ncc(-c3nc(Nc4ccc(N5CC6(C5)CN(C5COC5)C6)cn4)ncc3F)c21`, the Ki in series [1] is 77 nM; in series [2] it was 0.4 nM; in series [3], 4.3 nM.
Turning to `CC(C)c1n[nH]cc1-c1ccnc(NC2CCCCC2)n1`, the Ki in series [1] worked out at 24 nM; in series [2], 18 nM; in series [4] it was 0.022 µM; in series [3], 450 nM.
Take `C[C@@H]1CCCCn2ncc(-c3nc(Nc4ccc(C5CCN(C)CC5)cn4)ncc3F)c21`: the Ki in series [1] stood at 280 nM; in series [2], 0.8 nM; in series [3] it was 18 nM.
As to `C[C@@H]1CCCCn2ncc(-c3nc(Nc4ccc(N5CC6(CN(CCCF)C6)C5)cn4)ncc3F)c21`, the Ki in series [1] is 110 nM; in series [2] it was under 0.3 nM; in series [3], 3.3 nM.
`CN1CCN(c2ccc(Nc3ncc(F)c(-c4cnn5c4CCCC5)n3)nc2)CC1`: the Ki is 2000 nM in series [1], 3.6 nM in series [2] and 40 nM in series [3].
As for `CN1CCN(c2ccc(Nc3nccc(-c4cnn5c4CCCC5)n3)nc2)CC1`, the Ki worked out at 29000 nM in series [1], 61 nM in series [2], 15 µM in series [4] and 1900 nM in series [3].
As to `C[C@@H]1CCCCn2ncc(-c3nc(Nc4ccc(N5CC6(CN(C)C6)C5)cn4)ncc3F)c21`, the results for the Ki in series [1], in series [2] and in series [3] were 63 nM, under 0.3 nM and 1.7 nM, respectively.
In the case of `CC(C)c1c(-c2nc(Nc3ccc(N4CCN(C)CC4)cn3)ncc2F)cnn1C`, the Ki was determined as 530 nM in series [1], 2.7 nM in series [2] and 32 nM in series [3].
